Reference: patent publication US9034336B2, “Immunomodulators and immunomodulator conjugates” (Regents of the University of Minnesota, priority 2011, dated 2015)

Experiments:
[1] = tested on: human monocyte-derived dendritic cells (MoDC); assay: Human MoDC immunostaining and flow cytometric analysis (maturation, DC phenotype); format: cell-based
Method: 1. Dendritic cells were generated from peripheral blood monocytes as described (Brossart P, et al. Blood. 1998; 92: 4238-4247). In brief, CD14 positive monocytes were from a healthy human peripheral blood mononuclear cells (PBMC) obtained via isolation with Lymphocyte Separation Medium (Mediatech, Inc, Manassas, Va.) and after purification with CD14 microbeads from Miltenyi Biotec Inc (Aubun, Calif.). The CD14 positive monocytes (>95% CD14) were cultured into immature monocyte-derived dendritic cells (MoDC) by further 6 day culture with GM-CSF (100 ng/ml) and IL-4 (100 ng/ml)(R&D, MN). 2. 0.1 million of MoDC were plated into 96-well plate and stimulated for 48 hours with 5 different concentration of following TLRs: 412, 420, 421, 414 and 415 at concentration of 0, 0.325, 1.3, 5.2 and 20.8 nmol/ml in triplicate. In other experiments (FIGS. 34 and 35), fresh PBMC (not DC) were used as the responder cells to the indicated compounds and cytokines levels were measured by bead array according to the manufacture's protocol (BD biosciences).
48 hours after stimulation, the cells were stained with anti-HLA-DR, CD11c, CD-86, CD80, CD83, CD8a, CD123 and relevant isotype control (eBioscience, San Diego, Calif.). The cells were loaded on FACS-canto II and analyzed with FACSDiva and Flowjo

mouse splenocytes = assay: Inflammatory cytokine detection in splenocytes (CBA); format: cell-based, C57BL/6j mice
Method: Bone marrow cells were harvested from femurs and tibias of C57BL/6j. After red blood cells were removed with ammonium-chloride-potassium buffer, the bone marrow cells were cultured with complete RPMI-1640 medium and 2 ng/ml of granulocyte macrophage colony-stimulating factor (GM-CFS) at 5% CO2 and 37° C. for 6 days. Medium was changed twice during 6 days culture. Single cell suspension of splenocytes was prepared in the same way as one in IL-6 detection assay. BMDC or splenocytes were stimulated in triplicate with Imiquimod-derived new TLR ligand compounds, 412, 420, 421, 422, IMQ (414) and Resquimod (415) at various concentration of 20.8 nmol/ml, 5.2 nmol/ml, 1.3 nmol/ml, 0.325 nmol/ml and 0 nmol/ml. 48 hours after stimulation, the supernatants were harvested and frozen at −80° C. until detection. A cytometric bead array (CBA, BD Bioscience) was performed on inflammatory cytokines following the manufacture's instruction. 500 events were collected. Analysis of all samples was performed on FACScanto-II machine with software and further analyzed with Flowjo. Standard curves and negative control (PBS) were included for each cytokine to calculate the cytokine concentration in the samples.

human TLR8 = molecular target: T1, human TLR8 (Homo sapiens, UniProt Q9NR97); assay: TLR7/8-NF-κB reporter assay (HEK-TLR8, SEAP); format: cell-based; conditions: HEK-TLR8 cells, 24 hrs, read-out: EC50 of TLR8 (mean ± SD)
T1 construct: host or cells: HEK (HEK293) cells with NF-kB-responsive SEAP reporter
T1 sequence (Q9NR97 27-1041): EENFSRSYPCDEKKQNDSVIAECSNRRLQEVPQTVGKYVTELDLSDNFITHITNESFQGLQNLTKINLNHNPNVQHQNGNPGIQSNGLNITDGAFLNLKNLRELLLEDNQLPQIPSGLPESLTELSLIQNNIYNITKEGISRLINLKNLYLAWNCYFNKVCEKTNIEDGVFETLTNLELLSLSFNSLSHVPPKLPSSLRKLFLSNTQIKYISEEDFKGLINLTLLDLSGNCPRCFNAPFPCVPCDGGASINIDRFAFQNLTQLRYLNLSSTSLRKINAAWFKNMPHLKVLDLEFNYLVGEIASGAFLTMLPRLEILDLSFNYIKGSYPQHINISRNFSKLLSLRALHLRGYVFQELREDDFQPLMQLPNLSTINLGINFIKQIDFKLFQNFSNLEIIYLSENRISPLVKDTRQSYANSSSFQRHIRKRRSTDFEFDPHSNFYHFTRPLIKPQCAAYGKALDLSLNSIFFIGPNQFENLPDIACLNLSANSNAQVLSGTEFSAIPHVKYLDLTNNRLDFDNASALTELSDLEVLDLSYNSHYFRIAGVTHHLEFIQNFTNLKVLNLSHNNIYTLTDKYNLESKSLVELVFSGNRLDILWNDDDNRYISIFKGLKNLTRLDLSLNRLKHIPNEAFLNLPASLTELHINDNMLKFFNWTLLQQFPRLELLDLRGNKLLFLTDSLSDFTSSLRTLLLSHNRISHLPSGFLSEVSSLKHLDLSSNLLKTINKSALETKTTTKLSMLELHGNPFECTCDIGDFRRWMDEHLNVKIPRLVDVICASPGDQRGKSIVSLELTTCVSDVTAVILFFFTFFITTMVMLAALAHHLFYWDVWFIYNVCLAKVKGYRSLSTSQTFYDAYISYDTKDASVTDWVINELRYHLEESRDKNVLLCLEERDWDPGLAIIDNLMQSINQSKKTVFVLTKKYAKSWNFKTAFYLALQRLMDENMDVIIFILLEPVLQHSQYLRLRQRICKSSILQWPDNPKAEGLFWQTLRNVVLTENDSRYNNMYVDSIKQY
Method: Human embryonic kidney (HEK) cells that were stably transfected with human TLR7 or TLR8 and an NF-κB—responsive secreted embryonic alkaline phosphatase (SEAP) gene (HEK-TLR7/8) were purchased from InvivoGen (San Diego, Calif.). The procedure used to measure TLR7 or TLR8 agonist activity was conducted as described by Hood et al. (Hood J. D, et al., Human Vaccines, 2010, 6, 4, 322-335). Briefly, HEK-TLR7/8 cells were stimulated with 3.3 or 30 μM of compound in a 96-well plate in DMEM containing 10% FBS and 0.01% Normocin (InvivoGen) for 24 hrs. Twenty microliters of the supernatant from each well was incubated with Quanti-blue substrate solution (InvivoGen) at 37° C. for 1 hour and absorbance was read at 650 nm using a Synergy plate reader (Biotek, Winooski, Vt.).

EC50 (human TLR8): 49.6 ± 1.02 µM
SMILES: CCCCc1nc2c(N)nc3cc(C(=O)OC)ccc3c2n1CC(C)(C)O [Compound 420, 4-Amino-2-butyl-1-(2-hydroxy-2-methylpropyl)-7-methoxycarbonyl-1H-imidazo[4,5-c]quinoline]
differentiation of myeloid DC into CD123+ plasmacytoid DC ([1]; human MoDC (FIG. 4)): did not | MoDC maturation (raising CD86 co-stimulator level and CD83) ([1]; human MoDC, 48 hours after stimulation): same efficiency as Resiquimod and significantly stronger than imiquimod | IL-10 (anti-inflammatory) secretion (mouse splenocytes): less IL-10 (anti-inflammatory) secretion compared to resiquimod
